For one compound, EC50, Ki and Activity results are on record in ChEMBL document CHEMBL4428031, “Verbascoside Inhibits Promastigote Growth and Arginase Activity of Leishmania amazonensis” (J Nat Prod, 2016).

The term EC50 denotes the concentration needed to bring the measured effect to its halfway point. One may read the Ki as the equilibrium dissociation constant of an inhibitor or competing ligand from its target.

Experiment [1] deals with Leishmania amazonensis. The experiment can be described thus: Antileishmanial activity against Leishmania amazonensis MHOM/BR/1973/M2269 promastigotes assessed as reduction in cell viability incubated up to 72 hrs by trypan blue dye based Neubauer chamber method. Format: functional, organism-based. The conditions noted are these: MHOM/BR/1973/M2269, 72 h.
A further experiment addresses Arginase (Leishmania amazonensis, UniProt O96394). The experiment can be described thus: Competitive inhibition of Leishmania amazonensis arginase assessed as inhibition constant for enzyme-inhibitor complex using L-arginine as substrate incubated for 15 mins by Dixon plot analysis.
For a further experiment, the system named is Leishmania donovani. The experiment can be described thus: Antileishmanial activity against Leishmania donovani axenic amastigotes after 72 hrs by alamar blue assay. The experiment is classed as functional, organism-based.
Experiment [2] concerns Leishmania amazonensis. Description: Antileishmanial activity against Leishmania amazonensis MHOM/BR/1973/M2269 promastigotes assessed as reduction in cell viability at 100 uM after 72 hrs by trypan blue dye based Neubauer chamber method. Format: functional, organism-based.

Calls of active or inactive are those of the source. The rule behind the calls is not given here.

For `C[C@@H]1O[C@@H](O[C@@H]2[C@@H](O)[C@H](OCCc3ccc(O)c(O)c3)O[C@H](CO)[C@H]2OC(=O)/C=C/c2ccc(O)c(O)c2)[C@H](O)[C@H](O)[C@H]1O` [ACETOSIDE], the figures for the half-maximal effective concentration (EC50) in the experiment on Leishmania amazonensis [1] and with Leishmania donovani were 19 µM and 14 µM, respectively. Besides, the Ki at Arginase turned out to be 0.7 µM. Further, in the experiment with Leishmania amazonensis [2], the result was Active.
